Measurements: article PMC5095285, “The fungal-specific β-glucan-binding lectin FGB1 alters cell-wall composition and suppresses glucan-triggered immunity in plants” (Nature Communications, 2016)

Target: T1, FGB1 (Serendipita indica, UniProt G4TDB9)
T1 construct: gene PIIN_03211; native secreted mature protein purified from P. indica culture filtrate, signal peptide removed; precursor 104 residues; 6,219 Da, non-glycosylated, four disulfide bridges; no tag
Assay: isothermal titration calorimetry (VP-ITC)
Assay type: binding
Conditions: in water, 20 °C; single-site model, N=0.854±0.243; printed error exceeds the value (likely exponent misprint); read-out: K (converted)
From the text: isothermal titration calorimetry (VP-ITC) on FGB1 | The titration of gentiobiose to FGB1 was fitted to a single-side-binding model

T1 sequence (G4TDB9 entry or part of it): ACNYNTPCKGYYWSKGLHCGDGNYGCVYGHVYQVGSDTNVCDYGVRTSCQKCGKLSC

Kd: 11.4 µM
Structure (SMILES): OC[C@H]1O[C@@H](OC[C@H]2OC(O)[C@H](O)[C@@H](O)[C@@H]2O)[C@H](O)[C@@H](O)[C@@H]1O (stereo partly shown) [gentiobiose]
